{"source": "patent US20150051210A1", "about": "“Tyrosine Kinase Inhibitor Combinations and their Use” (Novartis AG, priority 2012, published 2015)", "molecules": {"B1": {"name": "FGF7: Fibroblast Growth Factor 7 (activator of FGFR) (protein, UniProt P21781 32-194, looked up)", "Fibroblast growth factor 7": "CNDMTPEQMATNVNCSSPERHTRSYDYMEGGDIRVRRLFCRTQWYLRIDKRGKVKGTQEMKNNYNIMEIRTVAVGIVAIKGVESEFYLAMNKEGKLYAKKECNEDCNFKELILENHYNTYASAKWTHNGGEMFVALNQKGIPVRGKKTKKEQKTAHFLPMAIT"}}, "format_in_all_cases": "cell-based", "key": {"RT-112 cells": {"tested_on": "RT-112 cells", "test": "RT-112 Dual Inhibition: reversal of rescue with selective inhibitors, CellTiter-Glo cell viability", "details": "for activity on cell viability (reversal of rescue): RT-112, rhHGF or rhNRG-1 250 ng/ml, 96 h, BGJ398 100 nM, Cpd. A/Cpd. B 500 nM, Lapatinib 1.5 μM, FIG. 5, FIG. 6", "description": "RT-112 Secretome screen: The basic format was identical to the MKN-45 secretome screen with slight modifications. RT-112 cells were plated in EMEM+10% in white, tissue-culture treated 384-well plates at 1000 cells/20 μl/well and allowed to attach overnight. Supernatant from library-transfected HEK293T/17 cells was transferred as described above for the MKN-45 secretome screen. Purified proteins rhNRG1-31 and rhTGFα were added as positive controls, at a final concentration of 150 ng/ml. Following addition of supernatants and purified protein controls, BGJ398 diluted in DMEM was added at 10 μl/well for a final assay concentration of 100 nM. Cell viability was measured after 72 hours using CellTiter-Glo as described above. (FIG. 2)\nRT-112 Dual Inhibition: The format for the RT-112 dual inhibition experiment was similar to that described for MKN-45 with the following modifications. RT-112 cells were plated at 1000 cells/20 μl/well. Solutions of rhHGF and rhNRG-1 were added to achieve a final concentration of 250 ng/ml. Single and dual inhibition conditions were prepared as follows: BGJ398, Cpd. A, Cpd. B, Lapatinib, BGJ398 and Cpd. A, BGJ398 and Cpd. B, BGJ398 and Lapatinib. Final concentrations for each compound, whether single or combined, were as follows: 100nM for BGJ398, 500 nM for Cpd. A and Cpd. B, and 1.5 μM for Lapatinib. After 96 hours cell viability was measured by CellTiter-Glo as previously described. (FIG. 5, FIG. 6)."}, "[1]": {"tested_on": "phosphorylation of MET, ERK1/2, AKT, FRS2 in MKN-45", "test": "Western blots of protein phosphorylation in MKN-45 cells", "description": "(§1) Western Blots (Figures not Shown) MKN-45 and RT-112 cells were treated in 6-well plates for 2 hours and 18 hours in the presence or absence of purified protein (rhFGF7, rhNRG1-31, or rhHGF), and/or inhibitor (Cpd. B, Cpd. A, BGJ398). Following wash with ice-cold PBS, cells were lysed with RIPA buffer (Thermo) containing phosphatase (Thermo) and proteinase (Roche) inhibitor cocktails. Total protein was quantified by bicinchoninic protein assay (Pierce). Aliquots of 20 μg were resolved by electrophoresis on NuPAGE SDS-PAGE 4-12% BIS-Tris gels before transfer to nitrocellulose membranes. Membranes were blocked for one hour at room temperature before overnight incubation at 4° C. with the following primary antibodies (source rabbit, 1:1000 final dilution): anti-phospho-Akt (Ser473), anti-phospho-MET (Tyr1234/1235), anti-phospho-MAPK/ERK(1/2) (Thr202/Tyr204), anti-AKT, anti-MAPK/Erk(1/2), and anti-α/β-Tubulin . Anti-MET was probed at 1:800 final dilution An internal antibody was used for phospho-FRS2(Y346) (1:1500 dilution). Membranes were then washed 3 times in PBS+0.1% Tween before addition of secondary antibody, IRDye 680LT goat anti-rabbit IgG , dilution 1:15000. After one hour at room temperature, membranes were washed and bands were visualized using an Odyssey Infrared Imager."}, "[2]": {"tested_on": "phosphorylation of MET, FRS2, ERK, AKT in RT-112", "test": "Western blots of protein phosphorylation in RT-112 cells", "description": "as §1"}, "MKN-45 cells": {"tested_on": "MKN-45 cells", "test": "MKN-45 Dual Inhibition: reversal of rescue with selective inhibitors, CellTiter-Glo cell viability", "details": "for activity on cell viability (reversal of rescue): MET-dependent MKN-45, rhFGF7 or rhNRG-1 250 ng/ml, 96 h, Cpd. A/Cpd. B 100 nM, BGJ398 500 nM, Lapatinib 1.5 μM, FIG. 3, FIG. 4", "description": "MKN-45 Secretome screen: MKN-45 cells were plated in white, tissue-culture treated 384-well plates (Greiner) at 3000 cells/20 μl DMEM +10% FBS/well and allowed to attach overnight. Supernatant from library-transfected HEK293T/17 cells was then transferred to the MKN-45 cells at 30 μl/well using a Biomek FX liquid handler (Beckman Coulter) with pipetting speeds reduced to minimize disturbance of the HEK293T/17 monolayer. As positive controls, the purified proteins rhEGF and rhNRG1-31 (R&D Systems) were added to isolated wells on each plate for a final concentration of 150 ng/ml; supernatant from mock-transfected HEK293T/17 wells were transferred as neutral controls. Following addition of supernatants and purified protein controls, Cpd. A diluted in DMEM was added at 10 μl/well for a final assay concentration of 100 nM. After 96 hours incubation, growth was measured using the CellTiter-Glo luminescent cell viability assay system (Promega). In brief, 30 μl CellTiter-Glo reagent was added to all wells, then incubated for 15 minutes at room temperature before reading luminescence on a Viewlux plate reader (Perkin Elmer). (FIG. 1)\nMKN-45 Dual Inhibition: MKN-45 cells were seeded at 3000 cells/20 μl/well in 384-well plates and incubated overnight. Solutions of rhFGF7 and rhNRG-1 were prepared in DMEM+10%FBS, then added at 30 μl/well to achieve a final concentration of 250 ng/ml (one purified protein per treatment). The following single and dual inhibition treatments were prepared in DMEM and added at […]: Cpd. A, Cpd. B, BGJ398, Lapatinib, Cpd. A and BGJ398, Cpd. B and BGJ398, Cpd. A and Lapatinib, Cpd. B and Lapatinib. Final concentrations for each compound, whether single or combined, were as follows: 100 nM for Cpd. A and Cpd. B, 500 nM for BGJ398 and 1.5 μM for Lapatinib. After 96 hours cell viability was measured by CellTiter-Glo as previously described. (FIG. 3, FIG. 4)"}}, "data": [{"molecule": "C/C(=N\\NC(N)=O)c1ccc2ncc(Cc3cc4cccnc4cc3F)n2n1", "note": "[Cpd. A, (E)-2-(1-(3-((7-fluoroquinolin-6-yl)methyl)imidazo[1,2-b]pyridazin-6-yl)ethylidene)hydrazinecarboxamide]", "values": [{"measurement": "activity on cell viability (reversal of rescue)", "setting": "RT-112 cells", "result": "not sufficient"}, {"measurement": "effect on phosphorylation of several proteins (MET, ERK1/2, AKT, FRS2)", "setting": "[1]; MKN-45, absence of added ligands", "result": "profound effect"}, {"measurement": "prevention of HGF rescue of ERK phosphorylation", "setting": "[2]; RT-112, BGJ398 plus HGF, simultaneous addition", "result": "prevented this rescue effect"}, {"measurement": "MET phosphorylation", "setting": "[2]; RT-112, absence of ligands", "result": "specifically inhibited MET phosphorylation"}, {"measurement": "activity on cell viability (reversal of rescue)", "setting": "MKN-45 cells", "result": "active"}]}, {"molecule": "HGF: Hepatocyte Growth Factor", "values": [{"measurement": "rescue of cell proliferation by recombinant ligand", "setting": "RT-112 cells; RT-112 in presence of FGFR inhibitor", "result": "reproduce the rescue effects"}, {"measurement": "ERK phosphorylation after addition of ligand", "setting": "[2]; RT-112, in the presence of BGJ398", "result": "restored ERK phosphorylation"}]}, {"molecule": "CS(=O)(=O)CCNCc1ccc(-c2ccc3ncnc(Nc4ccc(OCc5cccc(F)c5)c(Cl)c4)c3c2)o1", "note": "[lapatinib, reference compound]", "values": [{"measurement": "activity on cell viability (reversal of rescue)", "setting": "RT-112 cells", "result": "not sufficient"}, {"measurement": "reversal of FGF7 rescue effect on FRS2 and ERK1/2 phosphorylation", "setting": "[1]; MKN-45, MET inhibitor plus FGF7", "result": "not"}, {"measurement": "sensitivity of NRG1-evoked phosphorylation re-activation to inhibitor", "setting": "[1]; MKN-45, MET inhibitor plus NRG1", "result": "specifically sensitive"}, {"measurement": "sensitivity of NRG1-caused restoration of ERK phosphorylation to inhibitor", "setting": "[2]; RT-112", "result": "lapatinib-sensitive"}, {"measurement": "activity on cell viability (reversal of rescue)", "setting": "MKN-45 cells", "result": "not sufficient"}, {"measurement": "reversal of ligand-mediated rescue of proliferation", "setting": "MKN-45 cells; MKN-45 in presence of MET inhibitor Cpd. A or Cpd. B, FIGS. 3, 4", "result": "reversed rescue by NRG1"}]}, {"molecule": "B1", "values": [{"measurement": "AKT phosphorylation after addition of ligand", "setting": "[1]; MKN-45, MET inhibited", "result": "no or minimal effect on AKT phosphorylation"}, {"measurement": "ERK1/2 phosphorylation after addition of ligand", "setting": "[1]; MKN-45, MET inhibited", "result": "partially re-activated ERK1/2 phosphorylation"}, {"measurement": "FRS2 phosphorylation after addition of ligand", "setting": "[1]; MKN-45, MET inhibited", "result": "re-activated FRS2 phosphorylation"}]}]}
